Results as given in ChEMBL document CHEMBL3045984, “Resistance to HPPD-inhibiting herbicides in a population of waterhemp (Amaranthus tuberculatus) from Illinois, United States” (2011).

Tests used:
Type in all cases: functional
[1] = test system: Amaranthus tuberculatus; assay: Herbicidal activity against Amaranthus tuberculatus biotype MCR 15 assessed as visual injury at 560 g/ha applied as spray after 21 days under green house conditions relative to untreated control
[2] = test system: Amaranthus tuberculatus; assay: Herbicidal activity against Amaranthus tuberculatus biotype MCR 16 assessed as visual injury at 560 g/ha applied as spray after 21 days under green house conditions relative to untreated control
[3] = test system: Amaranthus tuberculatus; assay: Herbicidal activity against Amaranthus tuberculatus biotype MCR 12 assessed as visual injury at 560 g/ha applied as spray after 7 days under green house conditions relative to untreated control
[4] = test system: Amaranthus tuberculatus; assay: Herbicidal activity against Amaranthus tuberculatus biotype MCR 16 assessed as visual injury at 560 g/ha applied as spray after 7 days under green house conditions relative to untreated control
[5] = test system: Amaranthus tuberculatus; assay: Herbicidal activity against Amaranthus tuberculatus biotype MCR 12 assessed as visual injury at 560 g/ha applied as spray after 21 days under green house conditions relative to untreated control
[6] = test system: Amaranthus tuberculatus; assay: Herbicidal activity against Amaranthus tuberculatus biotype MCR 15 assessed as visual injury at 560 g/ha applied as spray after 7 days under green house conditions relative to untreated control
[7] = test system: Amaranthus tuberculatus; assay: Herbicidal activity against Amaranthus tuberculatus biotype WCS assessed as visual injury at 560 g/ha applied as spray after 14 days under green house conditions relative to untreated control
[8] = test system: Amaranthus tuberculatus; assay: Herbicidal activity against Amaranthus tuberculatus biotype MCR 15 assessed as visual injury at 560 g/ha applied as spray after 14 days under green house conditions relative to untreated control
[9] = test system: Amaranthus tuberculatus; assay: Herbicidal activity against Amaranthus tuberculatus biotype ACR assessed as visual injury at 560 g/ha applied as spray after 7 days under green house conditions relative to untreated control
[10] = test system: Amaranthus tuberculatus; assay: Herbicidal activity against Amaranthus tuberculatus biotype MCR 16 assessed as visual injury at 560 g/ha applied as spray after 14 days under green house conditions relative to untreated control
[11] = test system: Amaranthus tuberculatus; assay: Herbicidal activity against Amaranthus tuberculatus biotype MCR 12 assessed as visual injury at 560 g/ha applied as spray after 14 days under green house conditions relative to untreated control
[12] = test system: Amaranthus tuberculatus; assay: Herbicidal activity against Amaranthus tuberculatus biotype WCS assessed as visual injury at 560 g/ha applied as spray after 21 days under green house conditions relative to untreated control
[13] = test system: Amaranthus tuberculatus; assay: Herbicidal activity against Amaranthus tuberculatus biotype ACR assessed as visual injury at 560 g/ha applied as spray after 21 days under green house conditions relative to untreated control
[14] = test system: Amaranthus tuberculatus; assay: Herbicidal activity against Amaranthus tuberculatus biotype ACR assessed as visual injury at 560 g/ha applied as spray after 14 days under green house conditions relative to untreated control
[15] = test system: Amaranthus tuberculatus; assay: Herbicidal activity against Amaranthus tuberculatus biotype WCS assessed as visual injury at 560 g/ha applied as spray after 7 days under green house conditions relative to untreated control
[16] = test system: Amaranthus tuberculatus; assay: Herbicidal activity against Amaranthus tuberculatus biotype ACR assessed as decrease in shoot dry weight at 105 g/ha applied as spray during post-emergence after 21 days under green house conditions relative to untreated control; set-up: scale not given: the % may be the effect or the level left
[17] = test system: Amaranthus tuberculatus; assay: Herbicidal activity against Amaranthus tuberculatus biotype MCR 12 assessed as visual injury at 105 g/ha applied as spray after 7 days under green house conditions relative to untreated control
[18] = test system: Amaranthus tuberculatus; assay: Herbicidal activity against Amaranthus tuberculatus biotype WCS assessed as visual injury at 105 g/ha applied as spray after 21 days under green house conditions relative to untreated control
[19] = test system: Amaranthus tuberculatus; assay: Herbicidal activity against Amaranthus tuberculatus biotype MCR 15 assessed as visual injury at 105 g/ha applied as spray after 21 days under green house conditions relative to untreated control
[20] = test system: Amaranthus tuberculatus; assay: Herbicidal activity against Amaranthus tuberculatus biotype ACR assessed as visual injury at 105 g/ha applied as spray after 14 days under green house conditions relative to untreated control
[21] = test system: Amaranthus tuberculatus; assay: Herbicidal activity against Amaranthus tuberculatus biotype MCR assessed as mortality at 105 g/ha applied as spray after 21 days under green house conditions relative to untreated control; details: 504 h
[22] = test system: Amaranthus tuberculatus; assay: Herbicidal activity against Amaranthus tuberculatus biotype MCR assessed as mortality at 315 g/ha applied as spray after 21 days under green house conditions relative to untreated control; details: 504 h
[23] = test system: Amaranthus tuberculatus; assay: Herbicidal activity against Amaranthus tuberculatus biotype MCR 15 assessed as visual injury at 105 g/ha applied as spray after 7 days under green house conditions relative to untreated control
[24] = test system: Amaranthus tuberculatus; assay: Herbicidal activity against Amaranthus tuberculatus biotype MCR 15 assessed as visual injury at 105 g/ha applied as spray after 14 days under green house conditions relative to untreated control
[25] = test system: Amaranthus tuberculatus; assay: Herbicidal activity against Amaranthus tuberculatus biotype MCR 12 assessed as visual injury at 105 g/ha applied as spray after 14 days under green house conditions relative to untreated control
[26] = test system: Amaranthus tuberculatus; assay: Herbicidal activity against Amaranthus tuberculatus biotype ACR assessed as decrease in shoot dry weight applied as spray after 21 days under green house conditions
[27] = test system: Amaranthus tuberculatus; assay: Herbicidal activity against Amaranthus tuberculatus biotype WCS assessed as visual injury at 105 g/ha applied as spray after 14 days under green house conditions relative to untreated control
[28] = test system: Amaranthus tuberculatus; assay: Herbicidal activity against Amaranthus tuberculatus biotype ACR assessed as visual injury at 315 g/ha applied as spray after 21 days under green house conditions relative to untreated control
[29] = test system: Amaranthus tuberculatus; assay: Herbicidal activity against Amaranthus tuberculatus biotype WCS assessed as visual injury at 105 g/ha after 7 days applied as spray under green house conditions relative to untreated control
[30] = test system: Amaranthus tuberculatus; assay: Herbicidal activity against Amaranthus tuberculatus biotype MCR assessed as decrease in shoot dry weight applied as spray after 21 days under green house conditions
[31] = test system: Amaranthus tuberculatus; assay: Herbicidal activity against Amaranthus tuberculatus biotype MCR 16 assessed as visual injury at 105 g/ha applied as spray after 21 days under green house conditions relative to untreated control
[32] = test system: Amaranthus tuberculatus; assay: Herbicidal activity against Amaranthus tuberculatus biotype WCS assessed as decrease in shoot dry weight applied as spray after 21 days under green house conditions
[33] = test system: Amaranthus tuberculatus; assay: Herbicidal activity against Amaranthus tuberculatus biotype WCS assessed as decrease in shoot dry weight at 105 g/ha applied as spray during post-emergence after 21 days under green house conditions relative to untreated control; set-up: scale not given: the % may be the effect or the level left
[34] = test system: Amaranthus tuberculatus; assay: Herbicidal activity against Amaranthus tuberculatus biotype WCS assessed as visual injury at 315 g/ha applied as spray after 21 days under green house conditions relative to untreated control
[35] = test system: Amaranthus tuberculatus; assay: Herbicidal activity against Amaranthus tuberculatus biotype ACR assessed as visual injury at 105 g/ha applied as spray after 7 days under green house conditions relative to untreated control
[36] = test system: Amaranthus tuberculatus; assay: Herbicidal activity against Amaranthus tuberculatus biotype MCR 16 assessed as visual injury at 105 g/ha applied as spray after 14 days under green house conditions relative to untreated control
[37] = test system: Amaranthus tuberculatus; assay: Herbicidal activity against Amaranthus tuberculatus biotype MCR assessed as decrease in shoot dry weight at 105 g/ha applied as spray during post-emergence after 21 days under green house conditions relative to untreated control; set-up: scale not given: the % may be the effect or the level left
[38] = test system: Amaranthus tuberculatus; assay: Herbicidal activity against Amaranthus tuberculatus biotype MCR 12 assessed as visual injury at 105 g/ha applied as spray after 21 days under green house conditions relative to untreated control
[39] = test system: Amaranthus tuberculatus; assay: Herbicidal activity against Amaranthus tuberculatus biotype ACR assessed as visual injury at 105 g/ha applied as spray after 21 days under green house conditions relative to untreated control
[40] = test system: Amaranthus tuberculatus; assay: Herbicidal activity against Amaranthus tuberculatus biotype MCR 16 assessed as visual injury at 105 g/ha applied as spray after 7 days under green house conditions relative to untreated control

Compound: CCNc1nc(Cl)nc(NC(C)C)n1 [ATRAZINE]
- Activity [1]: 1%
- Activity [2]: 1%
- Activity [3]: 7%
- Activity [4]: 5%
- Activity [5]: 4%
- Activity [6]: 5%
- Activity [7]: 87%
- Activity [8]: 2%
- Activity [9]: 14%
- Activity [10]: 1%
- Activity [11]: 4%
- Activity [12]: 81%
- Activity [13]: 4%
- Activity [14]: 8%
- Activity [15]: 83%

Compound: CS(=O)(=O)c1ccc(C(=O)C2C(=O)CCCC2=O)c([N+](=O)[O-])c1 [MESOTRIONE]
- Activity [16]: >90%
- Activity [17]: 40%
- Activity [18]: 100%
- Activity [19]: 26%
- Activity [20]: 90%
- mortality at 105 g/ha [21]: 0%
- mortality at 315 g/ha [22]: 33%
- Activity [23]: 37%
- Activity [24]: 36%
- Activity [25]: 24%
- GR50 [26]: 4.9 g/ha
- Activity [27]: 96%
- Activity [28]: 100%
- Activity [29]: 85%
- GR50 [30]: 48.5 g/ha
- Activity [31]: 27%
- GR50 [32]: 1.4 g/ha
- Activity [33]: >90%
- Activity [34]: 100%
- Activity [35]: 63%
- Activity [36]: 45%
- Activity [37]: 60%
- Activity [38]: 13%
- Activity [39]: 88%
- Activity [40]: 48%
